{
  "source": "patent US20220088016A1",
  "about": "“CANCER TREATMENT USING MULTI-TARGETED KINASE INHIBITOR IN COMBINATION OF PROTEIN KINASE BIOMARKERS” (ZHEJIANG CROWNMAB BIOTECH CO. LTD., priority 2019, published 2022)",
  "key": {"KIT": {"target": "KIT (Homo sapiens, UniProt P10721)", "sequence (P10721 26-976)": "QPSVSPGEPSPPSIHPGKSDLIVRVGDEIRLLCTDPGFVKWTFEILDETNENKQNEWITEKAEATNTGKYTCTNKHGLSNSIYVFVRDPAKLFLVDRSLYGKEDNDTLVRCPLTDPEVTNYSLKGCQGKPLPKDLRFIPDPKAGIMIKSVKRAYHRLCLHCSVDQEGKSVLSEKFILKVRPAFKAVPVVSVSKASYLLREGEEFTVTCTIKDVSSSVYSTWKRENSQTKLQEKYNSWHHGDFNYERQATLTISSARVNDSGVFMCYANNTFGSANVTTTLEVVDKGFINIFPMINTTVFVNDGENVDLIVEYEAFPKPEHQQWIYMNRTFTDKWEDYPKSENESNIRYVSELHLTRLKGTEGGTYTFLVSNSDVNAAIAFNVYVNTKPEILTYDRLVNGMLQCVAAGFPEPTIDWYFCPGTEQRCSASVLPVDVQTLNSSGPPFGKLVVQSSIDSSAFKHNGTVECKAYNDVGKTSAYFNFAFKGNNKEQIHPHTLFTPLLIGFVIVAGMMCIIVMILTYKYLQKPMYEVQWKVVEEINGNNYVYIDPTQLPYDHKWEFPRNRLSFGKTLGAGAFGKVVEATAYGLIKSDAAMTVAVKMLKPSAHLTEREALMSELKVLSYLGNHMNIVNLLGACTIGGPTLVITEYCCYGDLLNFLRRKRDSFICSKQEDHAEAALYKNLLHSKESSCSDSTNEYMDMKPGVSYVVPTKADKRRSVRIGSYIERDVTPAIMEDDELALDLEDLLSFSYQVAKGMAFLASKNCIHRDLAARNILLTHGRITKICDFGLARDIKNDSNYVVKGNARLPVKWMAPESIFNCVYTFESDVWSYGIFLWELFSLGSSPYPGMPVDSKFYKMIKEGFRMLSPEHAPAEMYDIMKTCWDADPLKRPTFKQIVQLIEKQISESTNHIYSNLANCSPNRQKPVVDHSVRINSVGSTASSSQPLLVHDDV", "experiment": "Kinase profiling", "format": "binding", "settings": "read-out: % Ctrl @ 1000 nM"}, "FLT3 (N841I)": {"target": "FLT3 (N841I) (Homo sapiens, UniProt P36888, N841I)", "experiment": "Kinase profiling", "format": "binding", "settings": "read-out: % Ctrl @ 1000 nM"}, "CSNK1A1": {"target": "CSNK1A1 (Homo sapiens, UniProt P48729)", "experiment": "Kinase profiling", "format": "binding", "settings": "read-out: % Ctrl @ 1000 nM"}, "p38-delta": {"target": "p38-delta (Homo sapiens, UniProt O15264)", "experiment": "Kinase profiling", "format": "binding", "settings": "read-out: % Ctrl @ 1000 nM"}, "[1]": {"target": "RSK2 (Kin.Dom.2-C-terminal) (Homo sapiens, UniProt P51812)", "sequence (P51812 422-679 limits assumed)": "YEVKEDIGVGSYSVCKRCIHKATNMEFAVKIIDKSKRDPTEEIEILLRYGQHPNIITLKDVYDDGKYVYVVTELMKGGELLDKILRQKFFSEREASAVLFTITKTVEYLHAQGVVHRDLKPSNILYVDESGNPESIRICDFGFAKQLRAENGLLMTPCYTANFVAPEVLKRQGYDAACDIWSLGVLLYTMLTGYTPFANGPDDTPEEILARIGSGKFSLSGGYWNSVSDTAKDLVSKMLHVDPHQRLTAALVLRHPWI", "experiment": "Kinase profiling", "format": "binding", "settings": "read-out: % Ctrl @ 1000 nM"}, "SIK": {"target": "SIK (Homo sapiens, UniProt P57059)", "sequence (P57059 whole entry)": "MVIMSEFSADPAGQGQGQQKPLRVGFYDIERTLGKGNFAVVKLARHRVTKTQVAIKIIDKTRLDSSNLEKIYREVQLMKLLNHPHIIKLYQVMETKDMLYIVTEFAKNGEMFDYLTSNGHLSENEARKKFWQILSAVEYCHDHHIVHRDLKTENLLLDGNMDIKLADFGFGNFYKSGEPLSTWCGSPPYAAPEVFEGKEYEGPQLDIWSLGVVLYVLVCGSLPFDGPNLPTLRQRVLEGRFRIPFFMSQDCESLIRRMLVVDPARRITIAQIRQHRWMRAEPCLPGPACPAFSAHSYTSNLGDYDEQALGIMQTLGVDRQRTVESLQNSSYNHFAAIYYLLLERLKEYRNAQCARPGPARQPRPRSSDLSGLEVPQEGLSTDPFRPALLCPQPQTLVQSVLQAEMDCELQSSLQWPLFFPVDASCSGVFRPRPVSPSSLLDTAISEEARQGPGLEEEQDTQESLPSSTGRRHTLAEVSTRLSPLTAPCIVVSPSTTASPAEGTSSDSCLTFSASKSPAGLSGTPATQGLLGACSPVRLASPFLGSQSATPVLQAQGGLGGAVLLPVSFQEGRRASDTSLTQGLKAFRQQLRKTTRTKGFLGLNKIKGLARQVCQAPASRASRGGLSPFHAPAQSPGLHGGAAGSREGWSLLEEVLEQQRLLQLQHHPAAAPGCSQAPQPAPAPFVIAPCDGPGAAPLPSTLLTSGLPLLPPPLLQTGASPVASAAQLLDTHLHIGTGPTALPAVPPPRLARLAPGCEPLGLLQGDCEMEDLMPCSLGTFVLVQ", "experiment": "Kinase profiling", "format": "binding", "settings": "read-out: % Ctrl @ 1000 nM"}, "SGK3": {"target": "SGK3 (Homo sapiens, UniProt Q96BR1)", "experiment": "Kinase profiling", "format": "binding", "settings": "read-out: % Ctrl @ 1000 nM"}, "p38-beta": {"target": "p38-beta (Homo sapiens, UniProt Q15759)", "experiment": "Kinase profiling", "format": "binding", "settings": "read-out: % Ctrl @ 1000 nM"}, "CSF1R": {"target": "CSF1R (Homo sapiens, UniProt P07333)", "experiment": "Kinase profiling", "format": "binding", "settings": "read-out: % Ctrl @ 1000 nM"}, "KIT (D816H)": {"target": "KIT (D816H) (Homo sapiens, UniProt P10721, D816H)", "sequence (P10721 26-976 D816H)": "as the sequence (P10721 26-976) above, with D791H counted along it", "experiment": "Kinase profiling", "format": "binding", "settings": "read-out: % Ctrl @ 1000 nM"}, "TEC": {"target": "TEC (Homo sapiens, UniProt P42680)", "experiment": "Kinase profiling", "format": "binding", "settings": "read-out: % Ctrl @ 1000 nM"}, "[2]": {"test_system": "CD4 (T cell surface marker)", "experiment": "CD4 IHC test in MC-38 tumor", "format": "in vivo, mouse", "settings": "MC-38 tumors; vs vehicle group", "method": "MC38 tumor tissues were collected at the end of the in vivo efficacy trial. The tumor tissue was then embedded in paraffin. The expression of CD3/CD4/CD8/F4-80 were tested by immunohistochemistry stain."}, "JNK1": {"target": "JNK1 (Homo sapiens, UniProt P45983)", "experiment": "Kinase profiling", "format": "binding", "settings": "read-out: % Ctrl @ 1000 nM"}, "HPK1": {"target": "HPK1 (Homo sapiens, UniProt Q92918)", "experiment": "Kinase profiling", "format": "binding", "settings": "read-out: % Ctrl @ 1000 nM"}, "KIT (A829P)": {"target": "KIT (A829P) (Homo sapiens, UniProt P10721, A829P)", "sequence (P10721 26-976 A829P)": "as the sequence (P10721 26-976) above, with A804P counted along it", "experiment": "Kinase profiling", "format": "binding", "settings": "read-out: % Ctrl @ 1000 nM"}, "PDPK1": {"target": "PDPK1 (Homo sapiens, UniProt O15530)", "experiment": "Kinase profiling", "format": "binding", "settings": "read-out: % Ctrl @ 1000 nM"}, "CHEK2": {"target": "CHEK2 (Homo sapiens, UniProt O96017)", "experiment": "Kinase profiling", "format": "binding", "settings": "read-out: % Ctrl @ 1000 nM"}, "RET (M918T)": {"target": "RET (M918T) (Homo sapiens, UniProt P07949, M918T)", "sequence (P07949 29-1114 M918T)": "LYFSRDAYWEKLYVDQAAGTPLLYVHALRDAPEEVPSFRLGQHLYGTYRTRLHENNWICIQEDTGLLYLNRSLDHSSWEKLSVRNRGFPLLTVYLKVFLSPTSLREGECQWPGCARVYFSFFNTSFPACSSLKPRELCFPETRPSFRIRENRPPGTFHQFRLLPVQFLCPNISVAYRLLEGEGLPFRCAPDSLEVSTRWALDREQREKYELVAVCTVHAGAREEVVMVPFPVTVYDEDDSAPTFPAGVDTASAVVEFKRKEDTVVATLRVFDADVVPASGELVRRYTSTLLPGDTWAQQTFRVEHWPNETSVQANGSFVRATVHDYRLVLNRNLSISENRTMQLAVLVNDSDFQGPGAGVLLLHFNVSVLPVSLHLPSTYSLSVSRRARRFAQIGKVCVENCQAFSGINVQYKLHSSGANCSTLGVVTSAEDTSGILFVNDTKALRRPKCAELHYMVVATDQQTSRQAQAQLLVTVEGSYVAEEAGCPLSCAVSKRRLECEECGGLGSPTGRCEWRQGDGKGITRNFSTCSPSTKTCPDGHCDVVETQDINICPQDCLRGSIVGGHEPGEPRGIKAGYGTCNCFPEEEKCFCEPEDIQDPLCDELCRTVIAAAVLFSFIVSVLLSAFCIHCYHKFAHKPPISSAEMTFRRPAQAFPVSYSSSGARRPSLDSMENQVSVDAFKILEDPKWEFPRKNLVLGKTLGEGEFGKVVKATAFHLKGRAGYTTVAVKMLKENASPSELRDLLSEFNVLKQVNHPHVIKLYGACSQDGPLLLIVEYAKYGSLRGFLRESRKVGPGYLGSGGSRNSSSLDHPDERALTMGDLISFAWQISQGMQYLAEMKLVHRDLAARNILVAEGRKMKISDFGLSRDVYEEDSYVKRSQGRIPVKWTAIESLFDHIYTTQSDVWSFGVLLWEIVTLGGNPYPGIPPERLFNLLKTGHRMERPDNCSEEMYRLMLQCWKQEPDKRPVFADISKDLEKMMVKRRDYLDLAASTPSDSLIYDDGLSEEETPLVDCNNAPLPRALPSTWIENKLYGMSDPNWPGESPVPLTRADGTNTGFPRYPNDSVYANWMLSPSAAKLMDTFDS", "experiment": "Kinase profiling", "format": "binding", "settings": "read-out: % Ctrl @ 1000 nM"}, "STK16": {"target": "STK16 (Homo sapiens, UniProt O75716)", "experiment": "Kinase profiling", "format": "binding", "settings": "read-out: % Ctrl @ 1000 nM"}, "MKK7": {"target": "T1, MKK7 (Homo sapiens, UniProt O14733)", "T1 construct": "T7 phage fusion (stated for most kinases of the panel only); made in house; host or cells: T7 phage in E. coli (BL21-derived) or HEK-293 cells", "experiment": "Kinase profiling", "format": "binding", "settings": "read-out: % Ctrl @ 1000 nM"}, "MKNK2": {"target": "T2, MKNK2 (Homo sapiens, UniProt Q9HBH9)", "T2 construct": "T7 phage fusion (stated for most kinases of the panel only); made in house; host or cells: T7 phage in E. coli (BL21-derived) or HEK-293 cells", "experiment": "Kinase profiling", "format": "binding", "settings": "read-out: % Ctrl @ 1000 nM"}, "NEK6": {"target": "T3, NEK6 (Homo sapiens, UniProt Q9HC98)", "T3 construct": "T7 phage fusion (said for most assays); made in house", "experiment": "Kinase profiling", "format": "binding", "settings": "read-out: % Ctrl @ 1000 nM"}, "[3]": {"target": "ABL1 (F317L)-nonphosphorylated (Homo sapiens, UniProt P00519, F317L)", "experiment": "Kinase profiling", "format": "binding", "settings": "read-out: % Ctrl @ 1000 nM"}, "[4]": {"target": "RSK3 (Kin.Dom.2-C-terminal) (Homo sapiens, UniProt Q15349)", "experiment": "Kinase profiling", "format": "binding", "settings": "read-out: % Ctrl @ 1000 nM"}, "STK39": {"target": "STK39 (Homo sapiens, UniProt Q9UEW8)", "experiment": "Kinase profiling", "format": "binding", "settings": "read-out: % Ctrl @ 1000 nM"}, "LIMK1": {"target": "LIMK1 (Homo sapiens, UniProt P53667)", "sequence (P53667 whole entry)": "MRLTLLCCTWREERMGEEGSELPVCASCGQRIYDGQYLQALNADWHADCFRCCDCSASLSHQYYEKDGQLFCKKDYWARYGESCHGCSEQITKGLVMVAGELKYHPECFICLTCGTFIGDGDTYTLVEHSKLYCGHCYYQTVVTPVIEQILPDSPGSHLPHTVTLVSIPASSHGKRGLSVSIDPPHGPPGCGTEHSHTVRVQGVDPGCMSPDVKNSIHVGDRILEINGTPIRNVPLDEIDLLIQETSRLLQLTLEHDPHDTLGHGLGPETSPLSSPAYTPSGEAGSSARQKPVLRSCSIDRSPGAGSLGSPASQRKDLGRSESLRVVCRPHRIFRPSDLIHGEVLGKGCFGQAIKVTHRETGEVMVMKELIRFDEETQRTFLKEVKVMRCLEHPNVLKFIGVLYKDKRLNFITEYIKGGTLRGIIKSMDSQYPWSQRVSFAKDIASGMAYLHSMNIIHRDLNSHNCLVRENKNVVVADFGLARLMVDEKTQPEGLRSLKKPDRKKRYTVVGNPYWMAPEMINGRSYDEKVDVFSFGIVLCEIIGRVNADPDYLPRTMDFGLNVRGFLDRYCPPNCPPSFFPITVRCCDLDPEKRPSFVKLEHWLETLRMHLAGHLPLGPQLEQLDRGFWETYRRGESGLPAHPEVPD", "experiment": "Kinase profiling", "format": "binding", "settings": "read-out: % Ctrl @ 1000 nM"}, "MLK1": {"target": "T4, MLK1 (Homo sapiens, UniProt P80192)", "T4 construct": "T7 phage fusion (stated for most kinases of the panel only); made in house; host or cells: T7 phage in E. coli (BL21-derived) or HEK-293 cells", "experiment": "Kinase profiling", "format": "binding", "settings": "read-out: % Ctrl @ 1000 nM"}, "NEK9": {"target": "T5, NEK9 (Homo sapiens, UniProt Q8TD19)", "T5 construct": "T7 phage fusion (said for most assays); made in house", "experiment": "Kinase profiling", "format": "binding", "settings": "read-out: % Ctrl @ 1000 nM"}, "EGFR (L858R, T790M)": {"target": "EGFR (L858R, T790M) (Homo sapiens, UniProt P00533, L858R/T790M)", "sequence (P00533 25-1210 T790M/L858R)": "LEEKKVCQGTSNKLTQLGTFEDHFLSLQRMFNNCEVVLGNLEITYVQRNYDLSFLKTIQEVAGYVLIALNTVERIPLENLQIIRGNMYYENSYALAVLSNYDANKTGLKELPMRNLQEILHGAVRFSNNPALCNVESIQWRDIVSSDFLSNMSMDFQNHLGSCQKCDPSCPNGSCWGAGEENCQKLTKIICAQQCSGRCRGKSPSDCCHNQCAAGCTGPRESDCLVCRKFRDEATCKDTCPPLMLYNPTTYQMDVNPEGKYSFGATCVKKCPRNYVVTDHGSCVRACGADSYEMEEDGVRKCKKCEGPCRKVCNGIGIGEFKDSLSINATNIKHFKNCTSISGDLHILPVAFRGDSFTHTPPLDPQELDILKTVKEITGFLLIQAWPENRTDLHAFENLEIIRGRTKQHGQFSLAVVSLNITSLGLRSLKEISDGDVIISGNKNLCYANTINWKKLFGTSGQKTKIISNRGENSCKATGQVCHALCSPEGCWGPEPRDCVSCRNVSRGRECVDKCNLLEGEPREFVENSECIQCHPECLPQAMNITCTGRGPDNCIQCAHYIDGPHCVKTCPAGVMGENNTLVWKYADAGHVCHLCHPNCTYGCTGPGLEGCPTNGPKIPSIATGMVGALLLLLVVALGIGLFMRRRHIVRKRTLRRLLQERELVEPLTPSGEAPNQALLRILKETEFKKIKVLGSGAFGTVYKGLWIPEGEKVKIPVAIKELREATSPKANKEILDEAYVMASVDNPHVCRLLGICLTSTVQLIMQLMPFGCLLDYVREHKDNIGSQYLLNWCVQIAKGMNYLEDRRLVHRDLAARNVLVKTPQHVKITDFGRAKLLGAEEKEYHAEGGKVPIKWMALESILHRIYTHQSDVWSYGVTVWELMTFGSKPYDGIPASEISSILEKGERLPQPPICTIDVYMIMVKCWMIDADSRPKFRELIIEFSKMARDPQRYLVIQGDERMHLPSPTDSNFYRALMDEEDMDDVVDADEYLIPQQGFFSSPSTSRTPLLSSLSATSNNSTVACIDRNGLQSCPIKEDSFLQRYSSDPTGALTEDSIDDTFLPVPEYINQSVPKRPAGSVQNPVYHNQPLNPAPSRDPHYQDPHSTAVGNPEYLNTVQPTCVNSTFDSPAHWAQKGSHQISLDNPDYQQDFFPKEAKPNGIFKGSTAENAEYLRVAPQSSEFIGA", "experiment": "Kinase profiling", "format": "binding", "settings": "read-out: % Ctrl @ 1000 nM"}, "FER": {"target": "FER (Homo sapiens, UniProt P16591)", "experiment": "Kinase profiling", "format": "binding", "settings": "read-out: % Ctrl @ 1000 nM"}, "INSR": {"target": "INSR (Homo sapiens, UniProt P06213)", "experiment": "Kinase profiling", "format": "binding", "settings": "read-out: % Ctrl @ 1000 nM"}, "CAMK4": {"target": "CAMK4 (Homo sapiens, UniProt Q16566)", "experiment": "Kinase profiling", "format": "binding", "settings": "read-out: % Ctrl @ 1000 nM"}, "KIT (D816V)": {"target": "KIT (D816V) (Homo sapiens, UniProt P10721, D816V)", "sequence (P10721 26-976 D816V)": "as the sequence (P10721 26-976) above, with D791V counted along it", "experiment": "Kinase profiling", "format": "binding", "settings": "read-out: % Ctrl @ 1000 nM"}, "TIE1": {"target": "TIE1 (Homo sapiens, UniProt P35590)", "experiment": "Kinase profiling", "format": "binding", "settings": "read-out: % Ctrl @ 1000 nM"}, "[5]": {"target": "ABL1 (Y253F)-phosphorylated (Homo sapiens, UniProt P00519, Y253F)", "experiment": "Kinase profiling", "format": "binding", "settings": "read-out: % Ctrl @ 1000 nM"}, "[6]": {"target": "ABL1 (Q252H)-nonphosphorylated (Homo sapiens, UniProt P00519, Q252H)", "experiment": "Kinase profiling", "format": "binding", "settings": "read-out: % Ctrl @ 1000 nM"}, "AURKC": {"target": "AURKC (Homo sapiens, UniProt Q9UQB9)", "experiment": "Kinase profiling", "format": "binding", "settings": "read-out: % Ctrl @ 1000 nM"}},
  "data": [
    {"smiles": "Cc1cc(Oc2cc(NC(=O)C3CC3)ncn2)ccc1NC(=O)Nc1ccc(Cl)c(C(F)(F)F)c1", "note": "[CBT-102]", "values": [
      {"measurement": "remaining activity at 1 µM", "setting": "KIT", "result": 0, "unit": "%"},
      {"measurement": "remaining activity at 1 µM", "setting": "FLT3 (N841I)", "result": 0, "unit": "%"},
      {"measurement": "remaining activity at 1 µM", "setting": "CSNK1A1", "result": 99, "unit": "%"},
      {"measurement": "remaining activity at 1 µM", "setting": "p38-delta", "result": 8.6, "unit": "%"},
      {"measurement": "remaining activity at 1 µM", "setting": "[1]", "result": 83, "unit": "%"},
      {"measurement": "remaining activity at 1 µM", "setting": "SIK", "result": 95, "unit": "%"},
      {"measurement": "remaining activity at 1 µM", "setting": "SGK3", "result": 82, "unit": "%"},
      {"measurement": "remaining activity at 1 µM", "setting": "p38-beta", "result": 0, "unit": "%"},
      {"measurement": "remaining activity at 1 µM", "setting": "CSF1R", "result": 0, "unit": "%"},
      {"measurement": "remaining activity at 1 µM", "setting": "KIT (D816H)", "result": 37, "unit": "%"},
      {"measurement": "remaining activity at 1 µM", "setting": "TEC", "result": 92, "unit": "%"},
      {"measurement": "effect on T cell surface marker CD4 (IHC)", "setting": "[2]", "result": "no significant effect"},
      {"measurement": "remaining activity at 1 µM", "setting": "JNK1", "result": 90, "unit": "%"},
      {"measurement": "remaining activity at 1 µM", "setting": "HPK1", "result": 23, "unit": "%"},
      {"measurement": "remaining activity at 1 µM", "setting": "KIT (A829P)", "result": 16, "unit": "%"},
      {"measurement": "remaining activity at 1 µM", "setting": "PDPK1", "result": 100, "unit": "%"},
      {"measurement": "remaining activity at 1 µM", "setting": "CHEK2", "result": 100, "unit": "%"},
      {"measurement": "remaining activity at 1 µM", "setting": "RET (M918T)", "result": 0.1, "unit": "%"},
      {"measurement": "remaining activity at 1 µM", "setting": "STK16", "result": 100, "unit": "%"},
      {"measurement": "remaining activity at 1 µM", "setting": "MKK7", "result": 66, "unit": "%"},
      {"measurement": "remaining activity at 1 µM", "setting": "MKNK2", "result": 83, "unit": "%"},
      {"measurement": "remaining activity at 1 µM", "setting": "NEK6", "result": 100, "unit": "%"},
      {"measurement": "remaining activity at 1 µM", "setting": "[3]", "result": 16, "unit": "%"},
      {"measurement": "remaining activity at 1 µM", "setting": "[4]", "result": 92, "unit": "%"},
      {"measurement": "remaining activity at 1 µM", "setting": "STK39", "result": 100, "unit": "%"},
      {"measurement": "remaining activity at 1 µM", "setting": "LIMK1", "result": 74, "unit": "%"},
      {"measurement": "remaining activity at 1 µM", "setting": "MLK1", "result": 94, "unit": "%"},
      {"measurement": "remaining activity at 1 µM", "setting": "NEK9", "result": 96, "unit": "%"},
      {"measurement": "remaining activity at 1 µM", "setting": "EGFR (L858R, T790M)", "result": 86, "unit": "%"},
      {"measurement": "remaining activity at 1 µM", "setting": "FER", "result": 73, "unit": "%"},
      {"measurement": "remaining activity at 1 µM", "setting": "INSR", "result": 100, "unit": "%"},
      {"measurement": "remaining activity at 1 µM", "setting": "CAMK4", "result": 100, "unit": "%"},
      {"measurement": "remaining activity at 1 µM", "setting": "KIT (D816V)", "result": 18, "unit": "%"},
      {"measurement": "remaining activity at 1 µM", "setting": "TIE1", "result": 20, "unit": "%"},
      {"measurement": "remaining activity at 1 µM", "setting": "[5]", "result": 57, "unit": "%"},
      {"measurement": "remaining activity at 1 µM", "setting": "[6]", "result": 6, "unit": "%"},
      {"measurement": "remaining activity at 1 µM", "setting": "AURKC", "result": 33, "unit": "%"}
    ]}
  ]
}
